Molecular target: hERG channel (Homo sapiens (Human), UniProt Q12809)
Assay: hERG-Channel Assay (Assay 3), whole-cell patch clamp
Format: cell-based
Details: HEK293 cells stably transfected with hERG cDNA, pH 7.4, 35° C.
Description: hERG-Channel Assay (Assay 3)
• HEK (human embryonic kidney) 293 cells were stably transfected with hERG cDNA. • Pipettes and Solutions:
Cells were superfused with a bath solution containing (mM): NaCl (137), KCl (4.0), MgCl2 (1.0), CaCl2 (1.8), Glucose (10), HEPES (10), pH 7.4 with NaOH. Patch pipettes were made from borosilicate glass tubing using a horizontal puller and filled with pipette solution containing (mM): K-aspartate (130), MgCl2 (5.0), EGTA (5.0), K2ATP (4.0), HEPES (10.0), pH 7.2 with KOH. Resistance of the microelectrodes was in the range between 2 and 5 MΩ.
Stimulation and Recording:
Membrane currents were recorded using an EPC-10 patch clamp amplifier and PatchMaster software. hERG-mediated membrane currents were recorded at 35° C., using the whole-cell configuration of the patch-clamp technique. […] During each inter-pulse interval 4 pulses scaled down by a factor of 0.2 were recorded for a P/n leak subtraction procedure. […]
The different concentrations of the test compound were applied sequentially on each of the different cells investigated. A steady state level of baseline current was measured for at least 6 sweeps prior to the application of the first test compound concentration. […]
Peak current amplitudes were measured 3 ms after the ramp to +40 mV. […]

Chain of hERG channel (Q12809 whole entry): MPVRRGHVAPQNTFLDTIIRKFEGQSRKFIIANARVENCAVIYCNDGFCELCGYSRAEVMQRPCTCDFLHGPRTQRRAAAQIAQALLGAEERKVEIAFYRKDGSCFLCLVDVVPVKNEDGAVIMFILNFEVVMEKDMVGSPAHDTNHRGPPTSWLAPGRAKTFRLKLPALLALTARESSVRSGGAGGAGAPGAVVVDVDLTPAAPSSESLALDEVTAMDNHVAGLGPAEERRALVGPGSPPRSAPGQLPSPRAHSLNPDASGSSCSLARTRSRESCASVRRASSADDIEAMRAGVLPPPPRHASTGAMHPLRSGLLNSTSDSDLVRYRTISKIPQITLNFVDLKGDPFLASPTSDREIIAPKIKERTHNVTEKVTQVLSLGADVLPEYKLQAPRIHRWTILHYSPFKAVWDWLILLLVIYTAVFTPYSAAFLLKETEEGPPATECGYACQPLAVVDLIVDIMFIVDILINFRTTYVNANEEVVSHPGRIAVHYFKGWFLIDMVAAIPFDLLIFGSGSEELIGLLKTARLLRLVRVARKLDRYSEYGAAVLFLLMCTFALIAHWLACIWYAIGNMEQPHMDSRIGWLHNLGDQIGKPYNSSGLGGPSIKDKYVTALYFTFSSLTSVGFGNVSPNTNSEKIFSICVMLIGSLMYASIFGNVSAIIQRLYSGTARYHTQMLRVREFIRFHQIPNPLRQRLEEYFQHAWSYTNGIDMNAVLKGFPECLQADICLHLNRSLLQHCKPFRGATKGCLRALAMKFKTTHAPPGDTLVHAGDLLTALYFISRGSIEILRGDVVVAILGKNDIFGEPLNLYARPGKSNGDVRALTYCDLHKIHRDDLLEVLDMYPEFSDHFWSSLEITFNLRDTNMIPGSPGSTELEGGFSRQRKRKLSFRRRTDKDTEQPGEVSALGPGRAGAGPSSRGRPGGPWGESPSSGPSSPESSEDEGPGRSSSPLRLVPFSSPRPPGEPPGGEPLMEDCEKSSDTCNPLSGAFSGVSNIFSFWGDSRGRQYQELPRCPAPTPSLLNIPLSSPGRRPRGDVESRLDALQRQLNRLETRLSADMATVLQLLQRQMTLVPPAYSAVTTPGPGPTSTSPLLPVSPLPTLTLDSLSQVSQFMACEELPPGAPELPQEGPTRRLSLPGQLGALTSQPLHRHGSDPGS

`COC1CCC2(CC1)Cc1ccc(C#N)cc1C21N=C(N)N(CC2CCCO2)C1=O` (stereo not shown) was tested, and the inhibition at 10 µM was 16%.

— US9526727B2, “Inhibitors of beta-secretase” (Vitae Pharmaceuticals, Inc., priority 2012, dated 2016)
